Results reported in BindingDB's records for patent US20240190890 (Bristol-Myers Squibb, 2024).

Each molecule was assayed against MAP kinase-activated protein kinase 2 (Homo sapiens, UniProt P49137) (assay: Not found).
Procedure: Briefly, 10× stock solutions of MK2 (PV3317, from Life Technologies), 1.13X ATP (AS001A), and Sox conjugated peptide substrate, S/T3-Sox, (KZN1031) were prepared in 1× kinase reaction buffer consisting of 20 mM Tris, pH 7.5, 5 mM MgCl2, 1 mM EGTA, 5 mM β-glycerophosphate, 5% glycerol (10× stock, KB001A) and 0.2 mM DTT (DS001A). Enzyme solution (5 μL) was added to each of DMSO ([…]) or serially diluted test compounds prepared in DMSO in a Corning (#3574) 384-well, white, non-binding surface microtiter plate (Corning, NY). Kinase reactions were started with the addition of 45 μL of the ATP-peptide substrate S/T3-Sox mix and monitored every 71 seconds for 120 minutes at λex360/λem485 in a Synergy H4 plate reader from BioTek (Winooski, VT) at room temperature.

MAP kinase-activated protein kinase 2, sequence (P49137 whole entry): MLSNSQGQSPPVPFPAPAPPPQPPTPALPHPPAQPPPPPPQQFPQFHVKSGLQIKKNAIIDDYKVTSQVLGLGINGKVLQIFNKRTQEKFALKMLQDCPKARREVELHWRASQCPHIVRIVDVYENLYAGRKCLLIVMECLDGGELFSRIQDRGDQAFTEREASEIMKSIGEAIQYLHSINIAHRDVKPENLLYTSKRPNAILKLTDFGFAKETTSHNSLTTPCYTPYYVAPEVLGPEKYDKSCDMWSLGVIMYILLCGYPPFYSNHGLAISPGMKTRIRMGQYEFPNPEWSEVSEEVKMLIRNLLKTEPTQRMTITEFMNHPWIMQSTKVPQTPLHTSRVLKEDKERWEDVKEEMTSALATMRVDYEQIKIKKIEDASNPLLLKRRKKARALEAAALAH

Row | SMILES | IC50
1 | CCOCc1cnc(Cl)nc1-c1ccc2c(ccc3sc4c(c32)NC[C@@H](C)NC4=O)n1 [US20240190890, Compound I-3] | 107 nM
2 | C=Cc1cc(-c2ccc3c(ccc4sc5c(c43)NC[C@@H](C)NC5=O)n2)cc(C=C)n1 [US20240190890, Compound I-80] | 574 nM

Molecules with a lower IC50, results first:

Row | IC50 | SMILES
3 | 4 nM | C=Cc1nc(-c2ccc3c(ccc4sc5c(c43)NC[C@@H](C)NC5=O)n2)cc(N2CCN(C)CC2)n1 [US20240190890, Compound I-18]
4 | 2 nM | C=C(CN1CCOCC1)c1cc(-c2ccc3c(ccc4sc5c(c43)NC[C@@H](C)NC5=O)n2)ncn1 [US20240190890, Compound I-139]
5 | 73 nM | C=Cc1cc(-c2ccc3c(ccc4sc5c(c43)NC[C@@H](C)NC5=O)n2)cc(N2CC(C)OC(C)C2)n1 (stereo not given in full) [US20240190890, Compound I-201]
